Results on seven compounds are retold here after patent US12303891B2, “Emulating vascular cellular physiologies” (CALIFORNIA NORTHSTATE COLLEGE OF PHARMACY, LLC, priority 2021, dated 2025).

“Also recorded” adds a separate entry of the source.

In data set [1] the test system is PAH-ECs/SMCs/ADCs of male and female patients. As to the kind of experiment: PAH chip, sex-specific therapeutic response to bosentan. The class given is cell-based, human. How it is done:
As reported in our recent publication, we first characterized the cells for various markers and seeded control and PAH cells on the respective channels of the chips at a density of 2×10^6 cells/mL of adventitial cells (ADCs) or SMCs and 5˜10×10^6 cells/mL of ECs. SMCs were seeded in rat tail type I collagen solution (Corning Inc., NY). We fed the cells with the media via the two outermost channels. In experiment when chips were seeded with three different cell types, we first instilled collagen (2 mg/mL) alone or SMC mixed with collagen into the medial channel and allowed 20 minutes for collagen to form gel and then seeded ECs and ADCs 20 minutes apart. The cell-laden chips thus prepared were placed in a humidified chamber and let them grow in a CO2 incubator for 5-8 days. Each day, the medium was removed and replaced with 150 μL fresh media.
(§1) Into chips prepared by seeding PAH-ECs/SMCs/ADCs of male and female patients, we infused 50 µM bosentan starting from day 4 of cell seeding and continued the infusion for an additional 3 days. To determine whether the drug had any preventive effects, we treated the cell-laden chips with 50 µM bosentan on day 1 of seeding and let the cells grow for 6 more days with no treatment. For studying the influence of growth hormones and anti-PAH drug on cellular functions and remodeling, we seeded male and female PAH-ECs, QD705-labeled or unlabeled PAH-SMCs and PAH-ADCs. We assessed the deposition of human ColT1, expression of aromatase (an enzyme that synthesizes estrogen) and CYP1B1 (an estrogen-metabolizing enzyme) and then measured arterial remodeling and muscularization.
For assessing the effect of the drug pulmonary arterial thickening, we assumed that ECs and SMCs grow in their respective channels, the intimal and medial layers of the chip, not outside their assigned layers. If ECs or SMCs grow outside their original seeding channels, we considered out-of-designated channel growth as intimal or medial layer thickening, respectively. We also considered the migration of SMCs from the medial to intimal as muscularization and that the number of SMCs that grow in the intimal layers is the degree of muscularization. These assumptions were based on PAH pathology whereby non-muscularized distal arteries/arterioles become muscularized and show SM-like cells from preexisting SMCs. We used phase contrast microscopy, immunostaining, and quantum dot labeling to draw line between the growth zones of different cells and for counting and identifying cells.
For demarcating boundaries of different cell growth areas, we first imaged the chips using a phase-contrast microscope and then stained the cells for imaging using a confocal microscope. For calculating the extent of intimal and medial thickening, we calculated the average of the lengths of five to seven diametrically uneven points of the same layer. To determine the degree of muscularization, we grew QD-labeled N-SMC/PAH-SMCs on the chip and stained the chips for FSP-1 and CD31 antibodies and counted the number of FSP-1+CD31− or QD-labeled SMCs in all three layers of the chip.

Data set [2] concerns CMs and PAH-ECs. Kind of data set: PAH-RVH chip prepared with CMs and PAH-ECs, efficacy of anti-PAH drugs. The class given is cell-based, human. Conditions: chips prepared with CMs and PAH-ECs. An excerpt:
The modified chip device can be used, for example, for growing both cardiomyocytes (CMs) in the study of cardiovascular disease, and pulmonary arterial endothelial cells (ECs) in the study of pulmonary vascular diseases. The pulmonary arterial ECs, for example, can be collected from the pulmonary arteries of healthy donors (N-ECs) and that of PAH patients (PAH-ECs). We have seen that PAH is an example of a disease that can benefit from improved treatments developed with the systems and methods taught herein. Through the growing of CMs and either N-ECs or PAH-ECs in respective compartments or channels, for example, we can measure the influence PAH-ECs on CMs by measuring various soluble cellular markers, assessing the contractility of CMs, evaluating the expression of genes by CMs, and study the influence of anti-PAH PAH drugs on the release of hypertrophy inducing agents and hypertrophic markers and CM contractility.
We developed a drug therapy using the systems and methods. We used two anti-PAH drugs, sildenafil and bosentan, on chips prepared with CMs and PAH-ECs, the drug reduced the extent of CM hypertrophy, improved the contractility, and reduced both hypertrophy-inducing agents and hypertrophic markers. From our study, one of skill will understand that the systems and methods can identify the interactions between PAH-afflicted ECs and CMs and assess the efficacy of anti-PAH drugs in ameliorating pulmonary arterial hypertension right ventricular hypertrophy (PAH-RVH).

For data set [3], the system named is PAH patients. As to the kind of experiment: Responsiveness of female and male PAH patients to anti-PAH drugs. The class given is in vivo, human. Conditions: for responsiveness of female PAH patients: 'we have found'.
In data set [4] the test system is PAH patients. Conditions: female vs male PAH patients (p=0.3); cited from earlier work.
In data set [5] the test system is PACs of female patients and male patients. Kind of data set: Chips with PACs of female and male PAH patients treated with estrogen and growth factor. The class given is cell-based, human. The procedure: as §1
For assessing the effect of the drug pulmonary arterial thickening, we assumed that ECs and SMCs grow in their respective channels, the intimal and medial layers of the chip, not outside their assigned layers. If ECs or SMCs grow outside their original seeding channels, we considered out-of-designated channel growth as intimal or medial layer thickening, respectively. We also considered the migration of SMCs from the medial to intimal as muscularization and that the number of SMCs that grow in the intimal layers is the degree of muscularization. […]

[6] abbreviates: bosentan-treated female vs male chips.
Setting [7] is: early treatment, female chips compared with male counterparts.
[8] abbreviates: female chips, 50 µM bosentan infused from day 4 for 3 days.
Setting [9] is: preventive: treated on day one after seeding, then 6 days without treatment, female vs male chips.

For `COc1ccccc1Oc1c(NS(=O)(=O)c2ccc(C(C)(C)C)cc2)nc(-c2ncccn2)nc1OCCO` [bosentan], in data set [1] (setting [6]), the “ColT1a deposition, compartment-specific analysis” value was “lower in bosentan-treated female chips than in the male chips” and the “laminin deposition, compartment-specific analysis” value is recorded as “lower in bosentan-treated female chips than in the male chips”. Moreover, in data set [1] (chips with cells from female vs male PAH patients, 50 µM bosentan), the “responsiveness of female chips compared with male chips” value is “more responsive”. Moreover, in data set [1] (setting [7]), the “intimal deposition of ColT1a” value is recorded as “decreases” and the “intimal deposition of laminin” value is on record as “decreases”. In data set [1] (setting [8]), the “CYP1B1 expression in the medial layer” value is on record as “lowered”; the “migration of PAH-SMCs toward the luminal and intimal layers” value is recorded as “slowed”; the “thickening of the medial layer” value is on record as “reduced”. In addition, the level of muscularization entry in data set [1] (female vs male chips, counting QD705+ PAH-SMCs in intimal layers) is on record as “lower level of muscularization”. Moreover, in data set [1] (setting [9]), the “expression of CYP1B1” value was “declined more in the medial layer of the female chips than in the male chips” and the “presence of PAH-SMCs in the endothelial layer” value is reported as “lower in the female chips than in the male chips”. Besides, in data set [2], the “contractility of CMs” value was “improved”, the “extent of CM hypertrophy” value is recorded as “reduced”, the hypertrophic markers entry is recorded as “reduced” and the hypertrophy-inducing agents result is “reduced”. The “responsiveness of female PAH patients” value in data set [3] is recorded as “more responsive”. Also, the “responsiveness of female PAH patients compared with male patients, clinical data” value in data set [4] was “more responsive; also recorded: responsive”.

Regarding `CCCCC[C@H](O)/C=C/[C@@H]1[C@H]2C/C(=C/CCCC(=O)O)O[C@H]2C[C@H]1O` [epoprostenol], in data set [3], the “responsiveness of female PAH patients” value is listed as “more responsive”.

Regarding `CCCNS(=O)(=O)Nc1ncnc(OCCOc2ncc(Br)cn2)c1-c1ccc(Br)cc1` [macitentan], the “responsiveness of female PAH patients” value in data set [3] was “more responsive”.

On to `CC(C)N(CCCCOCC(=O)NS(C)(=O)=O)c1cnc(-c2ccccc2)c(-c2ccccc2)n1` [selexipag], for which the “responsiveness of female PAH patients” value in data set [3] is recorded as “more responsive”.

In the case of `CCCc1nn(C)c2c(=O)[nH]c(-c3cc(S(=O)(=O)N4CCN(C)CC4)ccc3OCC)nc12` [sildenafil], in data set [2], the “contractility of CMs” value was “improved”, the “extent of CM hypertrophy” value is reported as “reduced”, the hypertrophic markers entry was “reduced” and the hypertrophy-inducing agents result is given as “reduced”. In data set [3] (male PAH patients, 'we have also found'), the “responsiveness of male PAH patients” value was “more responsive”.

Take `CCCCC[C@H](O)CC[C@@H]1[C@H]2Cc3cccc(OCC(=O)O)c3C[C@H]2C[C@H]1O` [treprostinil]: in data set [3], the “responsiveness of female PAH patients” value is “more responsive”.

Consider Estrogen, for which the “responsiveness of female chips compared with male chips” value in data set [5] (chips with PACs from female vs male PAH patients) is “more responsive”. In addition, the arterial remodeling entry in data set [5] (chips with PACs of female patients vs male patients) is listed as “more extensive arterial remodeling”.
